Measurements reported in ChEMBL document CHEMBL5705895, “Species comparison and pharmacological characterization of human, monkey, rat, and mouse TRPA1 channels” (J Pharmacol Exp Ther, 2012).
The source made the active and inactive calls. The calls are words filed in the database; no cut-off is given here.

What was measured:
Type in all cases: cell-based
[1] = biological target: T1, Transient receptor potential cation channel subfamily A member 1 (Macaca mulatta, UniProt A0A1D5QMT1); assay: Agonist activity at rhesus monkey TRPA1 transfected in HEK293F cells assessed as increase in Ca2+ influx by FLIPR calcium assay
T1 sequence (A0A1D5QMT1 whole entry): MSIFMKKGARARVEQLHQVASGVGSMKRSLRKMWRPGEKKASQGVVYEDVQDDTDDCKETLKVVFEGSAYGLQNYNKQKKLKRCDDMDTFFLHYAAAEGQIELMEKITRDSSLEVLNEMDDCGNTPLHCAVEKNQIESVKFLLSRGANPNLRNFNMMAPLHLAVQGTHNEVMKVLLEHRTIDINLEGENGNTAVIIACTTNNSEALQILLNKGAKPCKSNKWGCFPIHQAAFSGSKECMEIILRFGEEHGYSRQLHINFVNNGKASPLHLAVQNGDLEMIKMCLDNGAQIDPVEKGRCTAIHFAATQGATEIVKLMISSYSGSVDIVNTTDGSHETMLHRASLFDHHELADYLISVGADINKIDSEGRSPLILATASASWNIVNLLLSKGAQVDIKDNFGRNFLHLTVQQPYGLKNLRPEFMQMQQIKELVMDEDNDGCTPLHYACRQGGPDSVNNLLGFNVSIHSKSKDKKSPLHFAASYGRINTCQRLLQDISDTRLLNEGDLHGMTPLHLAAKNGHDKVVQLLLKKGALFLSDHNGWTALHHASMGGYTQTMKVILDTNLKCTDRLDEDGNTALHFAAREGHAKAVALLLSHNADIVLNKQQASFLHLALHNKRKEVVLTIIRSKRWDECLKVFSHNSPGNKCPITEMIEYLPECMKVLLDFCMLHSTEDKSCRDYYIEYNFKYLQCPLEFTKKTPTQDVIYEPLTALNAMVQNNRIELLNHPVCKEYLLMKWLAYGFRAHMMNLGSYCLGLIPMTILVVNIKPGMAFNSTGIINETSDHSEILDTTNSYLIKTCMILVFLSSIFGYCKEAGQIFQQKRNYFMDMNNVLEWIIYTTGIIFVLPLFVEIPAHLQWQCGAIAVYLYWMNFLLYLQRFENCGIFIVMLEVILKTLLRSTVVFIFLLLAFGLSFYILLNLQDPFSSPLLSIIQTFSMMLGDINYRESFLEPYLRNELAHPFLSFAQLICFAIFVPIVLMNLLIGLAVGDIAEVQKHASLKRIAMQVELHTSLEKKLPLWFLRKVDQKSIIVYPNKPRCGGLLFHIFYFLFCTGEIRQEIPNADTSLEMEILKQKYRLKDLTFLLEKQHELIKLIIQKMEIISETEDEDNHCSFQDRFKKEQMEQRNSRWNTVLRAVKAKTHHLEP

[2] = biological target: T2, Transient receptor potential cation channel subfamily A member 1 (Rattus norvegicus, UniProt Q6RI86); assay: Agonist activity at full length rat TRPA1 transfected in HEK293F cells assessed as increase in Ca2+ influx by FLIPR calcium assay
T2 sequence (Q6RI86 whole entry): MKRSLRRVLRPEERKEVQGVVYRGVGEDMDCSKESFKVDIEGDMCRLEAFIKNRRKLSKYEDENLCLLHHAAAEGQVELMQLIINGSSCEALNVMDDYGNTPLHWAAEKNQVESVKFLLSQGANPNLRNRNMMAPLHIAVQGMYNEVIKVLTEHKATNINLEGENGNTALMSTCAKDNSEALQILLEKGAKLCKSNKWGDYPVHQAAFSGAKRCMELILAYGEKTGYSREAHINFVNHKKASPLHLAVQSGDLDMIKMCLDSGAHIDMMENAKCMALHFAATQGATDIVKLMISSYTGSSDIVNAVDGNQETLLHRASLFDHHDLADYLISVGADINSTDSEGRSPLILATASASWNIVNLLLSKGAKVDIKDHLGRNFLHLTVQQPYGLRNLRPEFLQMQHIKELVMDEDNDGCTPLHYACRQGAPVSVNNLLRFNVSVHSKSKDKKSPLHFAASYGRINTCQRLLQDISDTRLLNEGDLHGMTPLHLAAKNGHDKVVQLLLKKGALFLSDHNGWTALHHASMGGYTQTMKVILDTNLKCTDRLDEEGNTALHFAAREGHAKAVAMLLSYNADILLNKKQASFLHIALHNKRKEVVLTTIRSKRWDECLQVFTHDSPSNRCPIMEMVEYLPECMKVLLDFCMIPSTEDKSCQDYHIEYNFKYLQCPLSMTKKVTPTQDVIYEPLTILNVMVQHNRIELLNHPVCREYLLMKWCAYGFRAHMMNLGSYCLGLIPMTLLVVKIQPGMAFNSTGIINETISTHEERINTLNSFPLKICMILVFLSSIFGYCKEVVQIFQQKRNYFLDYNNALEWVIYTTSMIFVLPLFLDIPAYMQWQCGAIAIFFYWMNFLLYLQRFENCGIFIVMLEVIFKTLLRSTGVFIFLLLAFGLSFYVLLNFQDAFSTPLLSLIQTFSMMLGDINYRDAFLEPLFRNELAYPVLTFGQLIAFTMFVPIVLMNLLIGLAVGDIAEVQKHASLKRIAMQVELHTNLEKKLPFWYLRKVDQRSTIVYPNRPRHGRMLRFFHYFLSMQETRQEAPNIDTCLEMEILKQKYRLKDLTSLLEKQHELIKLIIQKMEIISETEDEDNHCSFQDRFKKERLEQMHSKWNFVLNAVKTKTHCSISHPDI

[3] = biological target: T3, Transient receptor potential cation channel subfamily A member 1 (Homo sapiens, UniProt O75762); assay: Agonist activity at full length human TRPA1 transfected in HEK293F cells assessed as increase in Ca2+ influx by FLIPR calcium assay
T3 sequence (O75762 whole entry): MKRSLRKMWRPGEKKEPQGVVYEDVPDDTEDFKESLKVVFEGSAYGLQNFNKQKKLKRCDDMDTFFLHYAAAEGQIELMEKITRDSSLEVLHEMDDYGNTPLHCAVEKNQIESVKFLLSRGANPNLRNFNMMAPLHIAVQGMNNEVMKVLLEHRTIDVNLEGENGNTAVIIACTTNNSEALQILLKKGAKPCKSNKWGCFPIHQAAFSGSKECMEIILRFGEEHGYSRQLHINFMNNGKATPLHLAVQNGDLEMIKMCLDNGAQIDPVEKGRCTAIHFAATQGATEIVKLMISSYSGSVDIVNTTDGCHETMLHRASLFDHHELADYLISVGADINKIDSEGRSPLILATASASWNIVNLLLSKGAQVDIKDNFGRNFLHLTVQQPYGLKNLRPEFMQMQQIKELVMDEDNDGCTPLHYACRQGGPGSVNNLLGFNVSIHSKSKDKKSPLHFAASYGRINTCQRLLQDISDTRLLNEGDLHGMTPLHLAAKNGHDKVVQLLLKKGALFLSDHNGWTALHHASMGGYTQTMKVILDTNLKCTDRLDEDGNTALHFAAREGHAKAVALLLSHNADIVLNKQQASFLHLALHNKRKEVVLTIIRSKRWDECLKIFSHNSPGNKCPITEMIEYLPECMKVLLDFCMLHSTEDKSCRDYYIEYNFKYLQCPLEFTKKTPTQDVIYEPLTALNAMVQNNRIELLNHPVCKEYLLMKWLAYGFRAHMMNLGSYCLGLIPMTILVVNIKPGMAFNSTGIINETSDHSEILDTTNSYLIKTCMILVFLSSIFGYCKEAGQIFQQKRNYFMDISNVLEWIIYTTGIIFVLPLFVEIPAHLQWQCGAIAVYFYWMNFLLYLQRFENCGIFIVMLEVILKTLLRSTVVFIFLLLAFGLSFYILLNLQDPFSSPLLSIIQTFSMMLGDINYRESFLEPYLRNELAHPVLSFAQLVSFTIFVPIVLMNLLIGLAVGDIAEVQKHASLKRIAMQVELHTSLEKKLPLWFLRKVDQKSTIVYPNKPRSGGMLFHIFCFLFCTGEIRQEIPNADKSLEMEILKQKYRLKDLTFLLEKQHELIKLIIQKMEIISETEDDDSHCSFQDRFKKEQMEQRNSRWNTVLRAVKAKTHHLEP

[4] = biological target: Transient receptor potential cation channel subfamily A member 1 (Mus musculus) (UniProt Q8BLA8); assay: Agonist activity at full length mouse TRPA1 transfected in HEK293F cells assessed as increase in Ca2+ influx by FLIPR calcium assay relative to control; details: filed as agonist
Sequence of Transient receptor potential cation channel subfamily A member 1 (Mus musculus) (Q8BLA8 whole entry): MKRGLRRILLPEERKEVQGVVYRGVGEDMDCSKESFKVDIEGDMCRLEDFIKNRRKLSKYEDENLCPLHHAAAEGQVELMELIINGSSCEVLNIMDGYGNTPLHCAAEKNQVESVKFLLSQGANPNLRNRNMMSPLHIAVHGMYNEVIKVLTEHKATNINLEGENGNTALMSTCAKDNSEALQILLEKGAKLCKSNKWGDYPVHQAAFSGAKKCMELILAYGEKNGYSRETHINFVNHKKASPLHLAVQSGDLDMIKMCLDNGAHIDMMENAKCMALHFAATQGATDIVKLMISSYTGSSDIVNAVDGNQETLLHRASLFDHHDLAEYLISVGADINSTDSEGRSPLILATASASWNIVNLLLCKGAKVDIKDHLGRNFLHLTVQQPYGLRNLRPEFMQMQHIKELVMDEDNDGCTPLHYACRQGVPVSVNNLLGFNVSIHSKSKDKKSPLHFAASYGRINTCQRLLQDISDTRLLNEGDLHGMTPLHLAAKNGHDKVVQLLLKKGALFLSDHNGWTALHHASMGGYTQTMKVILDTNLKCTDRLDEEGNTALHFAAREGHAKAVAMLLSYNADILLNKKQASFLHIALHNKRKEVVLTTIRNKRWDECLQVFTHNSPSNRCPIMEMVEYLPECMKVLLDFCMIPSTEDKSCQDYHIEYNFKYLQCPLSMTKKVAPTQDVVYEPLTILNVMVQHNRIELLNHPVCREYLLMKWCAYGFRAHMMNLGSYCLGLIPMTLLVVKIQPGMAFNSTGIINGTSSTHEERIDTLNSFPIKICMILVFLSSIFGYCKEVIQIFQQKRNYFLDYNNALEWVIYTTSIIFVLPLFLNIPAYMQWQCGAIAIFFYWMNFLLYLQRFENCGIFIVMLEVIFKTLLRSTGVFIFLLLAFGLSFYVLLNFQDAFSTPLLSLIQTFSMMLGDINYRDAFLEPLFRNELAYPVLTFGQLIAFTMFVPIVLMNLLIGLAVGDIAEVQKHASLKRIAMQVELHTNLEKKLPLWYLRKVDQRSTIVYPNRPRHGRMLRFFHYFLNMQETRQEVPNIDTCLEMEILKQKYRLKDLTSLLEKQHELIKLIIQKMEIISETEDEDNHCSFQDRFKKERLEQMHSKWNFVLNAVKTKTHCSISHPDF

[5] = biological target: T3, Transient receptor potential cation channel subfamily A member 1; assay: Agonist activity at full length human TRPA1 transfected in HEK293F cells assessed as increase in Ca2+ influx by FLIPR calcium assay relative to MO; details: filed as agonist
[6] = biological target: T4, Transient receptor potential cation channel subfamily A member 1 (Mus musculus, UniProt Q8BLA8); assay: Agonist activity at full length mouse TRPA1 transfected in HEK293F cells assessed as increase in Ca2+ influx by FLIPR calcium assay
T4 sequence (Q8BLA8 whole entry): as above

[7] = biological target: Transient receptor potential cation channel subfamily A member 1 (Rattus norvegicus) (UniProt Q6RI86); assay: Agonist activity at full length rat TRPA1 transfected in HEK293F cells assessed as increase in Ca2+ influx by FLIPR calcium assay relative to MO; details: filed as agonist
Sequence of Transient receptor potential cation channel subfamily A member 1 (Rattus norvegicus) (Q6RI86 whole entry): as the sequence (Q6RI86 whole entry) above

[8] = biological target: T4, Transient receptor potential cation channel subfamily A member 1; assay: Antagonist activity at full length mouse TRPA1 transfected in HEK293F cells assessed as blockade of MO-induced TRPA1 channel activation by measuring Ca2+ influx in presence of 30 uM MO by FLIPR calcium assay
[9] = biological target: T3, Transient receptor potential cation channel subfamily A member 1; assay: Antagonist activity at full length human TRPA1 transfected in HEK293F cells assessed as blockade of MO-induced TRPA1 channel activation by measuring Ca2+ influx in presence of 30 uM MO by FLIPR calcium assay
[10] = biological target: T1, Transient receptor potential cation channel subfamily A member 1; assay: Antagonist activity at full length rhesus monkey TRPA1 transfected in HEK293F cells assessed as blockade of MO-induced TRPA1 channel activation by measuring Ca2+ influx in presence of 120 uM MO by FLIPR calcium assay
[11] = biological target: T2, Transient receptor potential cation channel subfamily A member 1; assay: Antagonist activity at full length rat TRPA1 transfected in HEK293F cells assessed as blockade of MO-induced TRPA1 channel activation by measuring Ca2+ influx in presence of 30 uM MO by FLIPR calcium assay
[12] = biological target: T3, Transient receptor potential cation channel subfamily A member 1; assay: Antagonist activity at full length human TRPA1 transfected in HEK293F cells assessed as increase in Ca2+ influx by FLIPR calcium assay; details: filed as antagonist
[13] = biological target: T5, Transient receptor potential cation channel subfamily A member 1 (Macaca mulatta) (UniProt A0A1D5QMT1); assay: Antagonist activity at rhesus monkey TRPA1 transfected in HEK293F cells assessed as increase in Ca2+ influx by FLIPR calcium assay; details: filed as antagonist
T5 sequence (A0A1D5QMT1 as listed by the source): as the sequence (A0A1D5QMT1 whole entry) above

[14] = biological target: Transient receptor potential cation channel subfamily A member 1 (Mus musculus) (UniProt Q8BLA8); assay: Agonist activity at full length mouse TRPA1 transfected in HEK293F cells assessed as blockade of MO-induced TRPA1 channel activation by measuring Ca2+ influx in presence of 30 uM MO by FLIPR calcium assay; details: filed as agonist
[15] = biological target: Transient receptor potential cation channel subfamily A member 1 (Rattus norvegicus) (UniProt Q6RI86); assay: Agonist activity at full length rat TRPA1 transfected in HEK293F cells assessed as blockade of MO-induced TRPA1 channel activation by measuring Ca2+ influx in presence of 30 uM MO by FLIPR calcium assay; details: filed as agonist
[16] = biological target: T5, Transient receptor potential cation channel subfamily A member 1 (Macaca mulatta); assay: Agonist activity at rhesus monkey TRPA1 transfected in HEK293F cells assessed as increase in Ca2+ influx by FLIPR calcium assay relative to MO; details: filed as agonist
[17] = biological target: T3, Transient receptor potential cation channel subfamily A member 1; assay: Agonist activity at full length human TRPA1 transfected in HEK293F cells assessed as increase in Ca2+ influx in presence of 30 to 1000 uM MO by FLIPR calcium assay
[18] = biological target: T1, Transient receptor potential cation channel subfamily A member 1; assay: Activation of full length rhesus monkey TRPA1 transfected in HEK293F cells assessed as 120 uM of MO-induced current Blockade at -60 mV by whole-cell recording analysis
[19] = biological target: T1, Transient receptor potential cation channel subfamily A member 1; assay: Activation of full length rhesus monkey TRPA1 transfected in HEK293F cells assessed as 1 mM of MO-induced current Blockade at -60 mV by whole-cell recording analysis

SMILES | EC50 [1] [µM] | EC50 [2] [µM] | EC50 [3] [µM] | Emax [4] [%] | Emax [5] [%] | EC50 [6] [µM] | Emax [7] [%] | IC50 [8] [µM] | IC50 [9] [µM] | IC50 [10] [µM] | IC50 [11] [µM] | Activity [12] | Activity [13] | Activity [14] | Activity [15] | Emax [16] [%] | Activity [17] | IC50 [18] [µM] | IC50 [19] [µM]
NC(=O)c1cccc(-c2cccc(OC(=O)NC3CCCCC3)c2)c1 [URB-597] | > 100 | 129 | 7.5 | 77 | 85 | 74.4 | 72 | – | – | – | – | – | – | – | – | – | – | – | –
CCCCCC(O)/C=C/C=O (configuration not stated) [4-HYDROXYNON-2-ENAL] | > 100 | 6 | 9.9 | 72 | 80 | 6.6 | 76 | – | – | – | – | – | – | – | – | – | – | – | –
CC(=C\c1ccc(Cl)cc1)/C(C)=N/O [AP18 5] | – | – | – | – | – | – | – | 33 | 9.1 | 56.4 | 39.9 | – | – | – | – | – | – | – | –
CCCCC/C=C/C=C1/C(=O)C=C[C@@H]1C/C=C\CCCC(=O)O | > 100 | 19.9 | 40.4 | 65 | 75 | 56.4 | 70 | – | – | – | – | – | – | – | – | – | – | – | –
Cn1c(=O)c2c(ncn2C)n(C)c1=O [CAFFEINE] | – | 95.9 | – | 52 | – | 61.8 | 44 | – | 988 | > 1000 | – | Active | Active | Active | Active | – | – | – | –
CC(C)=CCC/C(C)=C/CC/C(C)=C/CSc1ccccc1C(=O)O [SALIRASIB] | 167 | 102 | 4.9 | 105 | 106 | 85.5 | 89 | – | – | – | – | – | – | – | – | 112 | – | – | –
CC1CCC(C(C)C)C(O)C1 (configuration not stated) [MENTHOL] | > 300 | 7.1 | 278 | 40 | 80 | 5.2 | 41 | 951 | > 1000 | > 1000 | 511 | – | – | – | – | – | inactive | – | –
CCC(=N\O)/C(C)=C/c1ccc(F)cc1 [A-079] | – | – | – | – | – | – | – | 0.75 | – | 0.6 | 0.33 | – | – | – | – | – | – | 0.6 | 1.63
O=C/C=C/c1ccccc1 | 23.9 | 5.4 | 12.5 | 71 | 81 | 3.4 | 89 | – | – | – | – | – | – | – | – | 84 | – | – | –
CC(C)c1ccc(NC(=O)Cn2cnc3c2c(=O)n(C)c(=O)n3C)cc1 | – | – | – | – | – | – | – | 6.8 | 7.4 | 7.3 | 7.6 | – | – | – | – | – | – | – | –
